Molecules are shown by their SMILES.

The target in one test is MAGE-A11:PCF11 (Homo sapiens (Human), UniProt P43364). In words: TR-FRET single point screening at 15 μM. The format is binding. The note with it: single point TR-FRET screening at 15 μM against MAGE-A11:PCF11. Further details: unit not given here. A digest of the protocol: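 Competition TR-FRET: compounds at final 15 μM mixed with 200 nM FAM-PCF11_4, 5 nM GST-MAGEA11 and 5 nM Tb-anti-GST in Tris pH 7.5/MgCl2/BSA/DTT buffer, room temperature, 90 min. Emission ratio 520/490 nm (340 nm excitation) expressed as % inhibition relative to positive and negative controls.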
Sequence of MAGE-A11:PCF11 (P43364 218-429): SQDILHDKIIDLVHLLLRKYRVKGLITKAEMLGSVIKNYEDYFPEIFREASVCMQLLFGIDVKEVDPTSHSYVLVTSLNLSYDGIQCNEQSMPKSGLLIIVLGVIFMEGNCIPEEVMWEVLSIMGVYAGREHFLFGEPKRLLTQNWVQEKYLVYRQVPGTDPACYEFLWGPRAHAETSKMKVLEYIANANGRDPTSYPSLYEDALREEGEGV
For orientation: Time-resolved FRET reads energy transfer from a long-lived donor to a nearby acceptor.
`Cc1ccc(F)cc1CN(CCCCNc1ccnc2cc(Cl)ccc12)Cc1ccccc1` [SJ000520449] displayed a TR-FRET signal of 42.32.

On to `CCCN(CCCCNc1ccnc2cc(Cl)ccc12)Cc1ccoc1` [SJ000311200], for which the TR-FRET signal amounted to 12.31.

Regarding `CCc1nc2ccccc2c(NC(=O)CNC(C)(C)CC(C)(C)C)c1C` [SJ000049110], the TR-FRET signal is given as −0.6045.

Take `Clc1ccc2c(NCCCCN(Cc3ccccc3)Cc3cccc4c3OCO4)ccnc2c1` [SJ000520436]: the TR-FRET signal came out at 21.65.

For the compound `COc1ccc(OC(F)(F)F)cc1CN(CCCCNc1ccnc2cc(Cl)ccc12)Cc1ccccc1` [SJ000520447], the TR-FRET signal came to 26.66.

`CCCN(CCCNc1c2ccc(Cl)cc2nc2ccc(OC)cc12)Cc1cccs1` [SJ000520920] had a TR-FRET signal of −164.1.

Turning to `CCCN(CCCNc1c2ccc(Cl)cc2nc2ccc(OC)cc12)Cc1nccs1` [SJ000522988], the TR-FRET signal is given as −117.5.

`CCCCN(CCCCNc1ccnc2cc(Cl)ccc12)Cc1ccccc1` [SJ000357538] yielded a TR-FRET signal of 27.64.

Turning to `CCC(CC)CNCCCNc1c2ccc(Cl)cc2nc2ccc(OC)cc12` [SJ000361092], the TR-FRET signal is reported as −427.4.

Consider `CCc1ccc2ncc(S(=O)(=O)c3ccc(OC)cc3)c(N3CCN(c4ccc(F)cc4)CC3)c2c1` [SJ000117064], for which the TR-FRET signal is given as −9.084.

Take `CCCN(CCC)CCCNc1c2ccc(Cl)cc2nc2ccc(OC)cc12` [SJ000520917]: the TR-FRET signal is recorded as −288.2.

`CCC(CC)CN(CCCCNc1ccnc2cc(Cl)ccc12)Cc1ccccc1` [SJ000361195] gave a TR-FRET signal of 25.54.

`O=S(=O)(c1ccccc1)c1cnc2ccc(Cl)cc2c1N1CCN(c2ccccc2)CC1` [SJ000083977]: the TR-FRET signal is listed as −15.7.

For `CCCN(CCCNc1c2ccc(Cl)cc2nc2ccc(OC)cc12)CC1CC1` [SJ000520936], the TR-FRET signal is on record as −271.4.

With `CCCN(CCCNc1c2ccc(Cl)cc2nc2ccc(OC)cc12)Cc1ccc2c(c1)OCO2` [SJ000520940], the TR-FRET signal is reported as −193.5.

With `COc1ccc2nc3cc(Cl)ccc3c(NCCCNCc3cc(F)ccc3OC)c2c1` [SJ000520993], the TR-FRET signal is listed as −365.4.

`COc1ccc(N2CCN(c3c(S(=O)(=O)c4ccc(Cl)cc4)cnc4ccc(C)cc34)CC2)cc1` [SJ000117075] yielded a TR-FRET signal of −3.122.

In turn, `CN1CCN(c2c(S(=O)(=O)c3ccc(Cl)cc3)cnc3ccccc23)CC1` [SJ000247306] registered a TR-FRET signal of −10.14.

`CCCN(CCCNc1c2ccc(Cl)cc2nc2ccc(OC)cc12)Cc1cccn1C` [SJ000522987] displayed a TR-FRET signal of −302.6.

`CCCN(CCCNc1c2ccc(Cl)cc2nc2ccc(OC)cc12)Cc1ccoc1` [SJ000520937] displayed a TR-FRET signal of −394.6.

`COc1ccc(F)cc1CN1CCC(Nc2ccnc3cc(Cl)ccc23)CC1` [SJ000357493] returned a TR-FRET signal of 6.153.

Turning to `COc1cccc(CN2CCC(Nc3ccnc4cc(Cl)ccc34)CC2)c1O` [SJ000357525], the TR-FRET signal was 9.995.

Take `Oc1ccccc1CN1CCC(Nc2ccnc3cc(Cl)ccc23)CC1` [SJ000357529]: the TR-FRET signal is recorded as 22.15.

Take `COc1ccc(N2CCN(c3c(S(=O)(=O)c4ccccc4)cnc4ccc(F)cc34)CC2)cc1` [SJ000083982]: the TR-FRET signal is recorded as −32.85.

Take `COc1ccc(S(=O)(=O)N2CCN(c3ccnc4cc(Cl)ccc34)CC2)cc1` [SJ000199955]: the TR-FRET signal is on record as −32.07.

Consider `CCOc1ccc2ncc(S(=O)(=O)c3ccc(C)cc3)c(N3CCN(CC)CC3)c2c1` [SJ000083964], for which the TR-FRET signal is listed as −5.899.

The compound `Cc1cccc(N2CCN(c3c(S(=O)(=O)c4ccccc4)cnc4ccccc34)CC2)c1C` [SJ000117081] yielded a TR-FRET signal of −13.13.

`CCN(CC)CC(=O)Nc1c2c(nc3ccccc13)N(C)CC2` [SJ000331537] showed a TR-FRET signal of 11.78.

`CCOC(=O)c1cnc2ccc(C(=O)O)cc2c1N1CCN(CCO)CC1` [SJ000280902] had a TR-FRET signal of −0.5958.

`COC(=O)c1ccc(CNCCCNc2c3ccc(Cl)cc3nc3ccc(OC)cc23)cc1` [SJ000522957] yielded a TR-FRET signal of −133.

As for `Fc1ccc(CN2CCC(Nc3ccnc4cc(Cl)ccc34)CC2)cc1F` [SJ000523089], the TR-FRET signal is reported as −1.958.

`Clc1ccc2c(NCCCCN(Cc3ccccc3)Cc3ccccc3)ccnc2c1` [SJ000522718] displayed a TR-FRET signal of 17.35.

Compound `CN1CCN(c2c(S(=O)(=O)c3ccccc3)cnc3ccc(F)cc23)CC1` [SJ000083949] yielded a TR-FRET signal of −11.5.

For `Cc1ccc2ncc(S(=O)(=O)c3ccccc3)c(N3CCN(Cc4ccccc4)CC3)c2c1` [SJ000247256], the TR-FRET signal turned out to be 2.673.

Compound `Cc1cccc(CN(CCCCNc2ccnc3cc(Cl)ccc23)Cc2ccccc2)c1` [SJ000361206] gave a TR-FRET signal of 29.54.

`COc1ccc2nc3cc(Cl)ccc3c(NCCCNCc3ccccc3F)c2c1` [SJ000523034] yielded a TR-FRET signal of −353.8.

Turning to `Clc1ccc2c(NCCCCN(Cc3ccccc3)Cc3ccncc3)ccnc2c1` [SJ000361190], the TR-FRET signal is reported as −9.945.

For the compound `CCN(CC)CCCC(C)Nc1ccnc2cc(Cl)ccc12` (stereo not shown) [SJ000285185], the TR-FRET signal is reported as −2.592.

In turn, `CCOc1ccc2ncc(S(=O)(=O)c3ccc(C)c(C)c3)c(N3CCN(CC)CC3)c2c1` [SJ000247355] registered a TR-FRET signal of −13.39.

With `O=S(=O)(c1ccc(F)cc1)N1CCN(c2ccnc3cc(Cl)ccc23)CC1` [SJ000203833], the TR-FRET signal is recorded as −50.64.

`COc1ccccc1CN(CCCCNc1ccnc2cc(Cl)ccc12)Cc1ccccc1` [SJ000522726] yielded a TR-FRET signal of 19.4.

The same test, now with this note: single point TR-FRET screening of quinoline compounds against MAGE-A11:PCF11; 15 μM.
Compound `CCCN(CCCNc1ccnc2cc(Cl)ccc12)CC1CCCCC1` [SJ000522751] returned a TR-FRET signal of 15.63.

Compound `FC(F)(F)c1ccc2c(NCCCNCc3ccc[nH]3)ccnc2c1` [SJ000361105] came in with a TR-FRET signal of 41.69.

As for `CCCN(CCCNc1ccnc2cc(Cl)ccc12)Cc1cncc(Br)c1` [SJ000523004], the TR-FRET signal was 4.828.

The compound `CCCN(CCCNc1ccnc2cc(Cl)ccc12)Cc1ccc(Br)o1` [SJ000311195] gave a TR-FRET signal of 14.48.

`Cc1cccc(CN(CCCNc2ccnc3cc(Cl)ccc23)Cc2ccccc2)c1` [SJ000361183]: the TR-FRET signal is 6.02.

In turn, `CCOC(=O)c1cnc2c(C(F)(F)F)cccc2c1NCCCN1CCOCC1` [SJ000131358] registered a TR-FRET signal of 10.06.

The compound `Clc1ccc2c(NCCCN(Cc3ccccc3)Cc3ccsc3)ccnc2c1` [SJ000312675] displayed a TR-FRET signal of 9.598.

In turn, `COc1ccc2nc3cc(Cl)ccc3c(NCCCNCc3ccc(N(C)C)c4ccccc34)c2c1` [SJ000523028] returned a TR-FRET signal of −1.532.

Consider `CCCN(CCCNc1c2ccc(Cl)cc2nc2ccc(OC)cc12)Cc1ccc(N(C)C)cc1` [SJ000520955], for which the TR-FRET signal was −10.06.

As for `CCCN(CCCNc1ccnc2cc(C(F)(F)F)ccc12)Cc1cncc(Br)c1` [SJ000521007], the TR-FRET signal is recorded as 4.323.

The compound `CCCN(CCCNc1ccnc2cc(C(F)(F)F)ccc12)Cc1ccc(Cl)c(C(F)(F)F)c1` [SJ000521015] had a TR-FRET signal of 11.04.

For the compound `CCCN(CCCNc1c2ccc(Cl)cc2nc2ccc(OC)cc12)Cc1ccc([N+](=O)[O-])cc1` [SJ000520949], the TR-FRET signal is −9.039.

On to `CCCN(CCCNc1ccnc2cc(C(F)(F)F)ccc12)Cc1ccc2ccccc2c1` [SJ000523075], for which the TR-FRET signal worked out at 11.39.

As for `CCCN(CCCNc1ccnc2cc(C(F)(F)F)ccc12)Cc1ncc[nH]1` [SJ000575181], the TR-FRET signal amounted to 9.345.

Compound `CCCN(CCCNc1c2ccc(Cl)cc2nc2ccc(OC)cc12)Cc1sccc1C` [SJ000520921] gave a TR-FRET signal of −83.81.

In the case of `Clc1ccc2c(NCCCN(Cc3ccccc3)Cc3ccc(Br)s3)ccnc2c1` [SJ000357461], the TR-FRET signal came out at 27.5.

Take `CCCCCCNCCCNc1ccnc2cc(C(F)(F)F)ccc12` [SJ000361124]: the TR-FRET signal is recorded as 31.61.

`CCCN(CCCNc1ccnc2cc(C(F)(F)F)ccc12)Cc1ccc(OC(F)(F)F)cc1` [SJ000520474] returned a TR-FRET signal of 17.38.

The compound `CCCN(CCCNc1ccnc2cc(C(F)(F)F)ccc12)Cc1cccc(C)c1` [SJ000523076] registered a TR-FRET signal of 20.17.

As for `CCCN(CCCNc1ccnc2cc(Cl)ccc12)Cc1c(C)n(C)n(-c2ccccc2)c1=O` [SJ000522755], the TR-FRET signal turned out to be 13.64.

`CCCN(CCCNc1c2ccc(Cl)cc2nc2ccc(OC)cc12)Cc1cc(C(F)(F)F)ccc1OC` [SJ000522985]: the TR-FRET signal was −46.02.

Regarding `c1coc(CNCCCNc2ccnc3cc(-c4ccc5c(c4)OCO5)ccc23)c1` [SJ000311290], the TR-FRET signal amounted to 30.79.

For `O=C(O)c1ccccc1CN(CCCNc1ccnc2cc(Cl)ccc12)Cc1ccccc1` [SJ000361180], the TR-FRET signal is on record as 9.598.

For `CCCN(CCCNc1c2ccc(Cl)cc2nc2ccc(OC)cc12)Cc1cc(OC(F)(F)F)ccc1OC` [SJ000522984], the TR-FRET signal was −36.71.

In the case of `CCOC(=O)c1cnc2ccc(F)cc2c1NCCCN1CCOCC1` [SJ000279864], the TR-FRET signal is listed as −0.3915.

Take `CCCN(CCCNc1ccnc2cc(Cl)ccc12)Cc1cccc(F)c1` [SJ000522758]: the TR-FRET signal stood at 27.42.

Take `Clc1ccc2c(NCCCN(CCOCc3ccccc3)Cc3ccccc3)ccnc2c1` [SJ000357583]: the TR-FRET signal is reported as 13.24.

Regarding `CCCN(CCCNc1ccnc2cc(C(F)(F)F)ccc12)Cc1cc(F)ccc1C` [SJ000521014], the TR-FRET signal is 20.64.

Consider `CCCN(CCCNc1ccnc2cc(C(F)(F)F)ccc12)Cc1cc(C(F)(F)F)ccc1OC` [SJ000520486], for which the TR-FRET signal came out at 8.188.

The record behind these values is US20240246941A1, “SUBSTITUTED 4-(3-AMINOPROP-1-YL)AMINOQUINOLINE ANALOGS AS MODULATORS OF MELANOMA-ASSOCIATED ANTIGEN 11 UBIQUITIN LIGASE” (ST. JUDE CHILDREN'S RESEARCH HOSPITAL, INC., priority 2020, published 2024).
